Reference: ChEMBL document CHEMBL4190285, “Borapetoside E, a Clerodane Diterpenoid Extracted from Tinospora crispa, Improves Hyperglycemia and Hyperlipidemia in High-Fat-Diet-Induced Type 2 Diabetes Mice” (J Nat Prod, 2017)
Activity calls are given as the source filed them.

How the values were obtained:
Assay type in all cases: functional, organism-based
Mus musculus [1] = experiment: Down regulation of SREBP2 mRNA expression in HFD-induced obese C57BL/6J mouse liver at 20 to 40 mg/kg, ip administered twice daily for 2.5 days measured at 2 hrs post last dose by RT-PCR analysis
Mus musculus [2] = experiment: Down regulation of FAS mRNA expression in HFD-induced obese C57BL/6J mouse liver at 20 to 40 mg/kg, ip administered twice daily for 2.5 days measured at 2 hrs post last dose by RT-PCR analysis
Mus musculus [3] = experiment: Antiobesity activity in HFFD-induced obese C57BL/6J mouse assessed as reduction in size of adipocytes at 40 mg/kg, ip administered twice daily for 2.5 days followed by once daily dosing up to 16 days measured at 2 hrs post last dose by hematoxylin-eosin staining based histological analysis
Mus musculus [4] = experiment: Improvement in insulin resistance in high fat diet-induced obese C57BL/6J mouse assessed as increase in GLUT2 expression in skeletal muscle at 40 mg/kg, ip administered twice daily for 2.5 days measured at 2 hrs post last dose by Western blot analysis

Measured: Activity

COC(=O)C1=CCC[C@H]2[C@](C)(C[C@@H](O[C@@H]3O[C@H](CO)[C@@H](O)[C@H](O)[C@H]3O)c3ccoc3)[C@H]3C[C@H](OC3=O)[C@@]12C
active: all assays above
